Assay results taken from patent US9453053B2, “Short peptides for enhancing muscle function” (UNIVERSITAT HEIDELBERG, priority 2010, dated 2016).
Entries after “also recorded” stand apart in the source; their conditions may differ. Ends that are not written are not given here.

How the values were obtained:
[1] = tested on: isolated rat ventricular cardiomyocytes; assay type: cell-based; settings: for effect on calcium transient amplitudes: FIG. 25, field-stimulated (1 Hz) isolated rat ventricular cardiomyocytes; for increase in the calcium transient amplitude over control cells, functional equivalence compared to S100A1ct6/11: FIG. 26, 2 Hz, peptides added 30 min before assessment
RyR2 = biological target: T1, RyR2 (Oryctolagus cuniculus, UniProt P30957); test: Ca2+-spark frequency in permeabilized cardiomyocytes; assay type: cell-based, rabbit
T1 construct: Adult ventricular rabbit cardiomyocytes were isolated from four different animals; endogenous in cells; host or cells: adult ventricular rabbit cardiomyocytes, permeabilized with beta-escin
T1 sequence (P30957 whole entry): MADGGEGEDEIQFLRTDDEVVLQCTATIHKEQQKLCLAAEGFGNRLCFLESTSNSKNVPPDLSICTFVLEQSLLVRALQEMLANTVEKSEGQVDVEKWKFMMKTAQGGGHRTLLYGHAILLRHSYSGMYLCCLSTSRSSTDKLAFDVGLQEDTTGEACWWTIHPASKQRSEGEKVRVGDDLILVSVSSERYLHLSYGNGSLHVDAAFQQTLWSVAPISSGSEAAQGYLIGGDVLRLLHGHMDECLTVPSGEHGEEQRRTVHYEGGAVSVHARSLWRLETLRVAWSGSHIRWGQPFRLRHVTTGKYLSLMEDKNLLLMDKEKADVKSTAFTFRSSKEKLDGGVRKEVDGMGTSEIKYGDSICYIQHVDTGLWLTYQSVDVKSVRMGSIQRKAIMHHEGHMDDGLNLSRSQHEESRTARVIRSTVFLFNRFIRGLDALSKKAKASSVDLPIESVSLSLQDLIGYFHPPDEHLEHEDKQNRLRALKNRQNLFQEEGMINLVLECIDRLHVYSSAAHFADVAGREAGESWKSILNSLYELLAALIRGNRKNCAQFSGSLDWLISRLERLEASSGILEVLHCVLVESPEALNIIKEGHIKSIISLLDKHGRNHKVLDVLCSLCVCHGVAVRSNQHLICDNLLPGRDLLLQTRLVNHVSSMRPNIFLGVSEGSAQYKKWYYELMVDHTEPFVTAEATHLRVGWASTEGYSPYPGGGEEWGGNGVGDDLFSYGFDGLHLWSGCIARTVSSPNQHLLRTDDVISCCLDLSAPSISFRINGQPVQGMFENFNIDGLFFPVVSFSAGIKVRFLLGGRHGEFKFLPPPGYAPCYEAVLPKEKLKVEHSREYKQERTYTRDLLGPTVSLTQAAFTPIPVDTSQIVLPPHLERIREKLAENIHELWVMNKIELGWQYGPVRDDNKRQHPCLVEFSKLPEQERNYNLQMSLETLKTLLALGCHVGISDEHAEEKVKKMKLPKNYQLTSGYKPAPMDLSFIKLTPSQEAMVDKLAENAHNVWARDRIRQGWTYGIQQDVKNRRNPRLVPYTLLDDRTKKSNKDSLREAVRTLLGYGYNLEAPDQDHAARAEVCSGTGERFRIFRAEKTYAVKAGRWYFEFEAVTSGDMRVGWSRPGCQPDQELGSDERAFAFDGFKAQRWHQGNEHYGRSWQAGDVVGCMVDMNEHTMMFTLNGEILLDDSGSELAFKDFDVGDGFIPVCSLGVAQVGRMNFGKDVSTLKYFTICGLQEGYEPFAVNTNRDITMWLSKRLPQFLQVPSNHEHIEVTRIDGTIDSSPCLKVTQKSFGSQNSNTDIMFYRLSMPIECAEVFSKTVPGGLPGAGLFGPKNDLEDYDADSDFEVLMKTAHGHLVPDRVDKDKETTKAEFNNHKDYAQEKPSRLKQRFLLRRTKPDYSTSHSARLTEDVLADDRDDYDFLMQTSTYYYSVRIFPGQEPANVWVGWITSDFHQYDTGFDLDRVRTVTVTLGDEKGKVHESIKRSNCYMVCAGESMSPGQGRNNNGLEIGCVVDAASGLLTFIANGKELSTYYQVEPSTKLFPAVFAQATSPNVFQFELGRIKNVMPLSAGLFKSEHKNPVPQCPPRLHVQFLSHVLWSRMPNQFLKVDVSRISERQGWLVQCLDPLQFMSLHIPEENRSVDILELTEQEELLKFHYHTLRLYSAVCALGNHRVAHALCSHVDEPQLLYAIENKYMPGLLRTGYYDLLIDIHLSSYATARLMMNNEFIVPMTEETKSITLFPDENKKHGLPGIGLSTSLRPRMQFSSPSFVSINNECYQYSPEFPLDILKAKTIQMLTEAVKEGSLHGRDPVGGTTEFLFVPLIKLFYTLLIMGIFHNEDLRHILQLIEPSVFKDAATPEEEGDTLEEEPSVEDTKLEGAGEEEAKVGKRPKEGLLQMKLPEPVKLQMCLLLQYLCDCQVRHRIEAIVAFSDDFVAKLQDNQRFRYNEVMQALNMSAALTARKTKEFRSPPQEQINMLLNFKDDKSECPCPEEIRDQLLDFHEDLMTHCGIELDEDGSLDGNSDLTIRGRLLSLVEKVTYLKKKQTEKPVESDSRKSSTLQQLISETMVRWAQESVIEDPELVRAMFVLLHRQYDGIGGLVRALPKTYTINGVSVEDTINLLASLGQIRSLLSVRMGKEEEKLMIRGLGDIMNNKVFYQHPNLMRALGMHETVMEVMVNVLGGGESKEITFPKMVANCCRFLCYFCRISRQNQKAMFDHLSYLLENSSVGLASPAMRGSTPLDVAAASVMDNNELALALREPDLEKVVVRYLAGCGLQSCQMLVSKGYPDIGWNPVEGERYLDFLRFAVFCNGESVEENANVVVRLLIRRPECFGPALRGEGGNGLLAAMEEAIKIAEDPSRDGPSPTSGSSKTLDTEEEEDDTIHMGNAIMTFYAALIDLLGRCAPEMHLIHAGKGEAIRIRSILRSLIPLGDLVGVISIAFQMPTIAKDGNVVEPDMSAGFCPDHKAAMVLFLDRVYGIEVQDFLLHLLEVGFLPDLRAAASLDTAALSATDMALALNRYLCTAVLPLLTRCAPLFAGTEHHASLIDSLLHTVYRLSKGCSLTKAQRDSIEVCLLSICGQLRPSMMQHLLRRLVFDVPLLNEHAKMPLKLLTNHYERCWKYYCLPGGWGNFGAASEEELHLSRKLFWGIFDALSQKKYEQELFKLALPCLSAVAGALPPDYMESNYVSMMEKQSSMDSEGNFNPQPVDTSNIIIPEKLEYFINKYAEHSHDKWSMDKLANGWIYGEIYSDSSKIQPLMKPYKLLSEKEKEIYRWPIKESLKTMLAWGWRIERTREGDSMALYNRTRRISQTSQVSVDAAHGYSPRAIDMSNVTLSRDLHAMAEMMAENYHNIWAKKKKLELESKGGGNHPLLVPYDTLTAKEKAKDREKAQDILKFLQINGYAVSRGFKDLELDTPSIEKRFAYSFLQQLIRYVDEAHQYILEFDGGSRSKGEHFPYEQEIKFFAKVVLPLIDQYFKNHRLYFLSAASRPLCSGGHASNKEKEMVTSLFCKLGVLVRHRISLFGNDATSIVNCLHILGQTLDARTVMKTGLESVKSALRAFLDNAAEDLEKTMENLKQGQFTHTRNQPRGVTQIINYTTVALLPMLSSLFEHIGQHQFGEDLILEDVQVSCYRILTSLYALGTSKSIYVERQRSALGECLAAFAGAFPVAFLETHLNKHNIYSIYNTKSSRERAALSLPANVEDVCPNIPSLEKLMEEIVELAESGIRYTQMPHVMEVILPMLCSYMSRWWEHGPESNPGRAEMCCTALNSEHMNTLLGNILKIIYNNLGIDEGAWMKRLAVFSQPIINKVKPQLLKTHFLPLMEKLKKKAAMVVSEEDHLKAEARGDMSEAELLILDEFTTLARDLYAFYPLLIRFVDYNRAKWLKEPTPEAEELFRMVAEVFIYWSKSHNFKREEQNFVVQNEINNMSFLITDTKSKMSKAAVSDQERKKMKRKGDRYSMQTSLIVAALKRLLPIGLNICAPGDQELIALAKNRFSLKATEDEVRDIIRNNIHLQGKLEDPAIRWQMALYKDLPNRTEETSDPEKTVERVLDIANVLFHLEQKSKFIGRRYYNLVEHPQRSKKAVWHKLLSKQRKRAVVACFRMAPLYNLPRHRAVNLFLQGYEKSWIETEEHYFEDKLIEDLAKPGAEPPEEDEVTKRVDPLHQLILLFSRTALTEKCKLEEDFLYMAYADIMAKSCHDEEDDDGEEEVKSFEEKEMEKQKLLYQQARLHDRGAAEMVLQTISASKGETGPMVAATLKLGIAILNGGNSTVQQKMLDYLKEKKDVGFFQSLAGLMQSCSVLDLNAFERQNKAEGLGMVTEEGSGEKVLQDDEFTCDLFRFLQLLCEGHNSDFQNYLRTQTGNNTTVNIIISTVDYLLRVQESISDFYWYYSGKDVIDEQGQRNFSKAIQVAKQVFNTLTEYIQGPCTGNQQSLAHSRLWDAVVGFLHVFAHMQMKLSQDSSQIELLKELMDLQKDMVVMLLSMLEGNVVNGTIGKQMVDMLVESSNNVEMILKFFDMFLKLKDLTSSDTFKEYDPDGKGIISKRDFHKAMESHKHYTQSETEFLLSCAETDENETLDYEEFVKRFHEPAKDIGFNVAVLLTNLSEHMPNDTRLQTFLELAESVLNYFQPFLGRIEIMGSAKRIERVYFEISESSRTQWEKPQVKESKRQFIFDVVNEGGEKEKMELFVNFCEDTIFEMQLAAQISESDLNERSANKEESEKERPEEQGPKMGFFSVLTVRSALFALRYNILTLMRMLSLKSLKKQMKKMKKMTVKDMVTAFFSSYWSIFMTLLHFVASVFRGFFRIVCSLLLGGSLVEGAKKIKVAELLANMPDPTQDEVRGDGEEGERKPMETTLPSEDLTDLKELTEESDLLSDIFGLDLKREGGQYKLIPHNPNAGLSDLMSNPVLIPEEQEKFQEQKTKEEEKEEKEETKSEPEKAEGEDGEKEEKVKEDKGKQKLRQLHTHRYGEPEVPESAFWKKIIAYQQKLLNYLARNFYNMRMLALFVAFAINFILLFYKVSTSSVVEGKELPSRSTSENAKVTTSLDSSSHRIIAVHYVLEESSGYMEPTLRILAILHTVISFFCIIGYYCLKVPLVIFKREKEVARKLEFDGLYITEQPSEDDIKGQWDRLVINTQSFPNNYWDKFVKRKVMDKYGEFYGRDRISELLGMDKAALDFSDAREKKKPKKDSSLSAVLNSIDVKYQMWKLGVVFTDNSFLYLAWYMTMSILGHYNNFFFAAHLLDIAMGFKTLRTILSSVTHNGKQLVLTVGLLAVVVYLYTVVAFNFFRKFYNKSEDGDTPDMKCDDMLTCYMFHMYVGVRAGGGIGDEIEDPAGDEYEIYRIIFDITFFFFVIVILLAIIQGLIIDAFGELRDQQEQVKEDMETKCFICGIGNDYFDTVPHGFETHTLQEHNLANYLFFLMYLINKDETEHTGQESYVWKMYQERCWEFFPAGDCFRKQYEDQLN
Method: Adult ventricular rabbit cardiomyocytes were isolated from four different animals as previously described (Loughrey C. M. et al., 2004, J. Physiol. 556:919-934) and permeabilized using β-escin (0.1 mg/ml). The permeabilized cells were incubated for 1 minute with rhodamine-labeled human S100A1 protein (0.1 μM) or FITC-labeled S100A1 C-terminal 20-mer peptide (0.1 μM) fused to a hydrophilic element (i.e. amino acids 75 to 94 of human S100A1 fused to the hydrophilic element D-K-D-D-P-P (SEQ ID NO: 17)). Cells were monitored using a Bio-Rad 2000 laser scanning confocal microscope (LSCM). A striated staining pattern can be observed that resembles the ryanodine staining pattern (FIG. 4).
Furthermore, Ca^2+-spark frequency has been assessed in the permeabilized cells treated with S100A1 protein or the S100A1 C-terminal 20-mer peptide fused to a hydrophilic element and it was shown that both, the full-length protein as well as the C-terminal fragment, decrease calcium spark frequency in permeabilized cardiomyocytes (FIGS. 5 and 6). […] Fluo-3 free acid (10 μM) present in the perfusing solution was excited at 488 nm (Kr-laser) and measured at >515 nm applying epifluorescence optics of an inverted microscope with a ×60-1.2 NA water-immersion objective lens. Fluorescence was acquired in line scan mode at 2 ms line^−1; pixel dimension was 0.3 μm (512 pixels scan^−1; zoom=1.4). […]

[2] = tested on: permeabilized EDL murine skeletal muscle fibers; test: Isometric twitch force in permeabilized skeletal muscle fibers; assay type: cell-based, mouse
Method: Muscle Fiber Preparation and Experimental Solutions. All of the animals were handled according to the guidelines of the animal care committee of the University of Heidelberg. Male BALB/c mice (3-6-months-old) were sacrificed by an overdose of carbon dioxide, and muscle fiber preparation was carried out as previously described (Fink R. H. and Stephenson D. G., 1987, Pflugers Arch. Eur. J. Physiol. 409:374-380; Makabe M. et al., 1996, Pflugers Arch. Eur. J. Physiol. 432: 717-726). Either EDL (M. ext. dig. longum) or Soleus was isolated, and a small fiber bundle containing two to four single fibers (between 80 and 150 μm in diameter and 3-4-mm-long) was dissected in paraffin oil. […] The free ion concentrations were calculated with the computer program REACT (version 2.0) from G. L. Smith (Glasgow, Scotland). […]
It was shown that both, the full-length S100A1 protein as well as the C-terminal fragment, has a potency to enhance isometric twitch force in permeabilized murine skeletal muscle fibers (FIG. 7). […] Maximum force was measured in the high activating solution at pCa 4.28 and 5 mM caffeine. […] Several control transients were recorded before the fiber was exposed to the S100A1 protein or the S100A1 peptide mixture (N/H/C) or the C-terminal 20-mer alone, and the experiment was repeated as outlined above. […]

[3] = tested on: adult intact cardiomyocytes or skeletal muscle fibers; test: Calcium homeostasis in adult intact cardiomyocytes or skeletal muscle fibers; assay type: cell-based; settings: adult intact (non-permeabilized) cardiomyocytes or skeletal muscle fibers

| Substance | effect on calcium transient amplitudes [1] | increase in the calcium transient amplitude over control cells, functional equivalence compared to S100A1ct6/11 [1] | other results |
| --- | --- | --- | --- |
| D-K-D-D-P-P (DKDDPP; hydrophilic motif) [hydrophobic element, 6-mer hydrophilic motif tested alone as control, reference compound] | do not exhibit the inotropic effect | – | – |
| D-K-D-D-P-P-L-V-A-A-L-T-V-A (DKDDPPLVAALTVA) [N-78-85-C] | abolishes the inotropic effect | – | – |
| D-K-D-D-P-P-V-A-A-L-T-V-A (DKDDPPVAALTVA; Functional peptide (Fig. 26)) [79-85] | abolishes the inotropic effect | partial functional equivalence | – |
| D-K-D-D-P-P-V-L-V-A-A-L-T-V-A (DKDDPPVLVAALTVA; Functional peptide (Fig. 26)) [77-85] | abolishes the inotropic effect | partial functional equivalence | – |
| D-K-D-D-P-P-V-V-L-V-A-A-L (DKDDPPVVLVAAL; Functional peptide (Fig. 26)) [76-82] | – | partial functional equivalence | – |
| D-K-D-D-P-P-V-V-L-V-A-A-L-T (DKDDPPVVLVAALT; Functional peptide (Fig. 26)) [76-83] | – | partial functional equivalence | – |
| D-K-D-D-P-P-V-V-L-V-A-A-L-T-V (DKDDPPVVLVAALTV; Functional peptide (Fig. 26)) [76-84] | – | full functional equivalence | – |
| DKDDPPYVVLVAALTVA [S100A1ct6/11, D-K-D-D-P-P-Y-V-V-L-V-A-A-L-T-V-A (SEQ ID NO: 42)] | – | – | EC50 [1]: 87 ± 6 nM |
| S100A1 protein: native human S100A1 protein, 94 amino acids, SEQ ID NO: 38; recombinant, rhodamine-labeled for imaging | – | – | diastolic calcium spark frequency and RyR2 activity (RyR2): decreases; isometric twitch force [2]: enhances; also recorded: equivalent biological potency to enhance isometric force; calcium homeostasis [3]: does not alter |
| YVVLVAALTVACNNFFWENS (SEQ ID NO: 39) (YVVLVAALTVACNNFFWENS; amino acids 75 to 94 of human S100A1) [20-mer S100A1 C-terminal peptide, amino acids 75-94 of human S100A1, reference compound] | – | – | diastolic calcium spark frequency and RyR2 activity (RyR2): decreases; isometric twitch force [2]: enhances; also recorded: equivalent biological potency to enhance isometric force; calcium homeostasis [3]: does not alter |
